This is an account of results in patent US10092570B2 (Incyte Corporation, priority 2011, dated 2018).

Structures can show the parent of a compound that is named as a salt. Bounds are passed on as bounds.

In the experiment the target is PI3Kδ (p110δ/p85α) (Homo sapiens (Human), UniProt O00329). The experiment in a line: Example A3: PI3Kδ scintillation proximity assay. The format is biochemical. Conditions: for IC50: scintillation proximity assay, 20 μM ATP, 4 nM PI3Kδ, read-out: PI3Kδ SPA IC50. How it is done: [γ-^33P]ATP (10 mCi/mL) was purchased from Perkin-Elmer (Waltham, Mass.). […] PI3Kδ (p110δ/p85α) was purchased from Millipore (Bedford, Mass.). ATP, MgCl2, DTT, EDTA, MOPS and CHAPS were purchased from Sigma-Aldrich (St. Louis, Mo.). Wheat Germ Agglutinin (WGA) YSi SPA Scintillation Beads was purchased from GE healthcare life sciences (Piscataway, N.J.).
The kinase reaction was conducted in polystyrene 384-well matrix white plate from Thermo Fisher Scientific in a final volume of 25 μL. Inhibitors were first diluted serially in DMSO and added to the plate wells before the addition of other reaction components. The final concentration of DMSO in the assay was 0.5%. The PI3K assays were carried out at room temperature in 20 mM MOPS, pH 6.7, 10 mM MgCl2, 5 mM DTT and CHAPS 0.03%. Reactions were initiated by the addition of ATP, the final reaction mixture consisted of 20 μM PIP2, 20 μM ATP, 0.2 μCi [γ-^33P] ATP, 4 nM PI3Kδ. […] 25 mM EDTA, 400 μM ATP. The final concentration of SPA beads was 1.0 mg/mL. After the plate sealing, plates were shaken overnight at room temperature and centrifuged at 1800 rpm for 10 minutes, the radioactivity of the product was determined by scintillation counting on Topcount (Perkin-Elmer). IC50 determination was performed by fitting the curve of percent control activity versus the log of the inhibitor concentration using the GraphPad Prism 3.0 software.

Sequence of PI3Kδ (p110δ/p85α) (O00329 whole entry): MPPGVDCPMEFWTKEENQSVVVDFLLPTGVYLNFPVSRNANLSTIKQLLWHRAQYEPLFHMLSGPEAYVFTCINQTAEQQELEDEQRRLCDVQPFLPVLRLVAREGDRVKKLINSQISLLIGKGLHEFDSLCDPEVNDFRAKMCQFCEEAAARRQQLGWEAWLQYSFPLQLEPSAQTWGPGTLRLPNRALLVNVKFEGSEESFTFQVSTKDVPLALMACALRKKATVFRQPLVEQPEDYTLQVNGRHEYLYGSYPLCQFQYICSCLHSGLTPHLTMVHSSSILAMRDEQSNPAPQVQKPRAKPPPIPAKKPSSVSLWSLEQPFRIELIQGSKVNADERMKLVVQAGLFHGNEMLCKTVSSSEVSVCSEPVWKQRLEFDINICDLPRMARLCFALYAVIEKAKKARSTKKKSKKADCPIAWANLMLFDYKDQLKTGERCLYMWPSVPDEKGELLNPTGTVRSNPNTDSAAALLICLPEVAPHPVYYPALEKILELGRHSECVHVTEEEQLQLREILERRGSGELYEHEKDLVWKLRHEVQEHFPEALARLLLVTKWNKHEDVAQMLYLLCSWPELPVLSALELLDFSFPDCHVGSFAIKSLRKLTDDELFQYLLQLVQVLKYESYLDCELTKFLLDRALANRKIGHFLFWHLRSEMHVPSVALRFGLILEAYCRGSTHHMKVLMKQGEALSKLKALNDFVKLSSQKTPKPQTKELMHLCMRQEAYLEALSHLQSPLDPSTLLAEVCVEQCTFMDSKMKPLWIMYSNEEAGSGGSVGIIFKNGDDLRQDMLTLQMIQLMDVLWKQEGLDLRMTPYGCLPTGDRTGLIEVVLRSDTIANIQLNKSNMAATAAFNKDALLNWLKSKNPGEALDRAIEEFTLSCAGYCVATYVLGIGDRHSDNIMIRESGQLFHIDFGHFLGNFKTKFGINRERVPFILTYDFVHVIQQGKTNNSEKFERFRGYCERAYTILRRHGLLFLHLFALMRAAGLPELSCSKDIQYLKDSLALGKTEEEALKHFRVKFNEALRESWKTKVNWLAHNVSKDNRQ
Sequence of PI3Kδ (p110δ/p85α) (P27986 whole entry partner): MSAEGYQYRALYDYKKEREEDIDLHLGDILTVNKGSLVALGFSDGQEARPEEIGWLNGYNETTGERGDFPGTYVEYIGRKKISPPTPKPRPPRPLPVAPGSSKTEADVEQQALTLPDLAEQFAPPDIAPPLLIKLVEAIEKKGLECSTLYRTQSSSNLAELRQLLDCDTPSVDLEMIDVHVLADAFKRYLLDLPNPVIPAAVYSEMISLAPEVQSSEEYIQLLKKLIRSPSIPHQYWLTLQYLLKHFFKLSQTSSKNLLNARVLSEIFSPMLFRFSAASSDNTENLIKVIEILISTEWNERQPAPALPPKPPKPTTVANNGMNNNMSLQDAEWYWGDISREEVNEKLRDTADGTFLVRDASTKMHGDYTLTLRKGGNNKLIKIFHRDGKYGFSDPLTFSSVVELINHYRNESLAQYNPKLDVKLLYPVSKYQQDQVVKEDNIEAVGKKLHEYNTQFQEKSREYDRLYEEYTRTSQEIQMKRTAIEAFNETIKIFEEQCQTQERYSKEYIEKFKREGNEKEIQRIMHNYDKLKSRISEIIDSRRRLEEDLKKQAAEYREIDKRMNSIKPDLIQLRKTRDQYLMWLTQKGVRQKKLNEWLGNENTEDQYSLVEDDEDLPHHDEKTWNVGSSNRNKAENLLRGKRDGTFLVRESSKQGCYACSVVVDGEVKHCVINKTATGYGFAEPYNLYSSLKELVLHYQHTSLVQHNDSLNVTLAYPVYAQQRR

As to `COc1c(C(C)n2nc(C)c3c(N)ncnc32)cc(Cl)c(C)c1C1CN(C2(CC#N)CCC2)C1` (single isomer, unassigned) [Example 161, [1-(3-{3-[1-(4-Amino-3-methyl-1H-pyrazolo[3,4-d]pyrimidin-1-yl)ethyl]-5-chloro-2-methoxy-6-methylphenyl}azetidin-1-yl)cyclobutyl]acetonitrile], the IC50 (commonly the concentration that gives 50% inhibition) is less than 0.01 µM.

As to `COc1c(C(C)n2nc(C)c3c(N)ncnc32)cc(Cl)c(C)c1-c1ccnc(C(=O)NCCO)c1` (racemic) [Example 18, 4-{3-[1-(4-Amino-3-methyl-1H-pyrazolo[3,4-d]pyrimidin-1-yl)ethyl]-5-chloro-2-methoxy-6-methylphenyl}-N-(2-hydroxyethyl)pyridine-2-carboxamide], the IC50 is less than 0.01 µM.

As for `CCOc1c(C(C)n2nc(C)c3c(N)ncnc32)cc(Cl)c(C#N)c1-c1cncc(S(C)(=O)=O)c1` (racemic) [Example 43, 4-[1-(4-amino-3-methyl-1H-pyrazolo[3,4-d]pyrimidin-1-yl)ethyl]-6-chloro-3-ethoxy-2-[5-(methylsulfonyl)pyridin-3-yl]benzonitrile], the IC50 is less than 0.01 µM.

Turning to `COc1c(C(C)n2nc(C)c3c(N)ncnc32)cc(Cl)c(C#N)c1C1CN(C(=O)N(C)C)C1` (single isomer, unassigned) [Example 296, 3-{3-[1-(4-Amino-3-methyl-1H-pyrazolo[3,4-d]pyrimidin-1-yl)ethyl]-5-chloro-6-cyano-2-methoxyphenyl}-N,N-dimethylazetidine-1-carboxamide], the IC50 is less than 0.01 µM.

In the case of `CCOc1c(C(C)n2nc(-c3cnn(CCO)c3)c3c(N)ncnc32)cc(Cl)c(C)c1-c1ccc(C(=O)N(C)C)nc1` (stereo not shown) [Example 52, 5-[3-(1-{4-amino-3-[1-(2-hydroxyethyl)-1H-pyrazol-4-yl]-1H-pyrazolo[3,4-d]pyrimidin-1-yl}ethyl)-5-chloro-2-ethoxy-6-methylphenyl]-N,N-dimethylpyridine-2-carboxamide bis(trifluoroacetate)], the IC50 was less than 0.01 µM.

Turning to `CCOc1c(C(C)n2nc(C)c3c(N)ncnc32)cc(Cl)c(F)c1C1CNC(=O)O1` (stereo not shown) [Example 357, 5-{3-[1-(4-amino-3-methyl-1H-pyrazolo[3,4-d]pyrimidin-1-yl)ethyl]-5-chloro-2-ethoxy-6-fluorophenyl}-1,3-oxazolidin-2-one], the “relative activity among the four separated diastereomers (peaks 1-4)” value (assay not specified) is “most active enantiomer”.

Regarding `CCOc1c(C(C)n2nc(C)c3c(N)ncnc32)cc(Cl)c(C#N)c1C1CN(C(=O)OC(C)C)C1` (single isomer, unassigned) [Example 254, Isopropyl 3-{3-[1-(4-amino-3-methyl-1H-pyrazolo[3,4-d]pyrimidin-1-yl)ethyl]-5-chloro-6-cyano-2-ethoxyphenyl}azetidine-1-carboxylate], the IC50 was less than 0.01 µM.

Take `CCN1CC(c2c(C)c(Cl)cc(C(C)n3nc(C)c4c(N)ncnc43)c2OC)C1` (racemic) [Example 6, 1-{1-[5-Chloro-3-(1-ethylazetidin-3-yl)-2-methoxy-4-methylphenyl]ethyl}-3-methyl-1H-pyrazolo[3,4-d]pyrimidin-4-amine]: the IC50 was less than 0.01 µM.

Take `COc1c(C(C)n2nc(C)c3c(N)ncnc32)cc(Cl)c(C#N)c1C1CN(S(C)(=O)=O)C1` (single isomer, unassigned) [Example 285, 4-[1-(4-Amino-3-methyl-1H-pyrazolo[3,4-d]pyrimidin-1-yl)ethyl]-6-chloro-3-methoxy-2-[1-(methylsulfonyl)azetidin-3-yl]benzonitrile]: the IC50 was less than 0.01 µM.

In the case of `CCOc1c(C(C)n2nc(C)c3c(N)ncnc32)cc(Cl)c(C)c1C1CN(C(=O)[C@@H](C)O)C1` (stereo partly drawn) [Example 100, (2R)-1-(3-{3-[1-(4-Amino-3-methyl-1H-pyrazolo[3,4-d]pyrimidin-1-yl)ethyl]-5-chloro-2-ethoxy-6-methylphenyl}azetidin-1-yl)-1-oxopropan-2-ol], the IC50 was less than 0.01 µM.

With `CCOc1c(C(C)n2nc(C(F)F)c3c(N)ncnc32)cc(Cl)c(F)c1C1CN(C[C@@H](C)O)C1` (stereo partly drawn) [Example 155, (2R)-1-[3-(3-{1-[4-Amino-3-(difluoromethyl)-1H-pyrazolo[3,4-d]pyrimidin-1-yl]ethyl}-5-chloro-2-ethoxy-6-fluorophenyl)azetidin-1-yl]propan-2-ol], the IC50 is less than 0.01 µM.

In the case of `COc1c(C(C)n2nc(C(F)F)c3c(N)ncnc32)cc(C#N)c(C)c1C1CN(C[C@H](C)O)C1` (stereo partly drawn) [Example 131, 5-{1-[4-Amino-3-(difluoromethyl)-1H-pyrazolo[3,4-d]pyrimidin-1-yl]ethyl}-3-{1-[(2S)-2-hydroxypropyl]azetidin-3-yl}-4-methoxy-2-methylbenzonitrile], the half-inhibitory concentration (IC50) is less than 0.01 µM.

Turning to `COc1c(C(C)n2ccc(=O)c3c(N)ncnc32)cc(Cl)c(C)c1-c1cccnc1` (racemic) [Example 28, 4-Amino-8-[1-(5-chloro-2-methoxy-4-methyl-3-pyridin-3-ylphenyl)ethyl]pyrido[2,3-d]pyrimidin-5(8H)-one bis(trifluoroacetate)], the IC50 was less than 0.01 µM.

For the compound `CCC(C)N1CC(c2c(C)c(Cl)cc(C(C)n3nc(C)c4c(N)ncnc43)c2OC)C1` (stereo not shown) [Example 8, 1-{1-[3-(1-sec-butylazetidin-3-yl)-5-chloro-2-methoxy-4-methylphenyl]ethyl}-3-methyl-1H-pyrazolo[3,4-d]pyrimidin-4-amine], the IC50 is less than 0.01 µM.

`CCOc1c(C(C)n2nc(C)c3c(N)ncnc32)cc(Cl)c(C)c1C1CN(C(=O)c2cnn(C)c2)C1` (stereo not shown) [Example 101, 1-[1-(5-Chloro-2-ethoxy-4-methyl-3-{1-[(1-methyl-1H-pyrazol-4-yl)carbonyl]azetidin-3-yl}phenyl)ethyl]-3-methyl-1H-pyrazolo[3,4-d]pyrimidin-4-amine trifluoroacetate]: the IC50 is less than 0.01 µM.

Consider `CCOc1c(C(C)n2nc(C)c3c(N)ncnc32)cc(Cl)c(C#N)c1C1CNC1` (single isomer, unassigned) [Example 212, 4-[1-(4-Amino-3-methyl-1H-pyrazolo[3,4-d]pyrimidin-1-yl)ethyl]-2-azetidin-3-yl-6-chloro-3-ethoxybenzonitrile], for which the IC50 is less than 0.01 µM.

Regarding `CCOc1c(C(C)n2nc(C)c3c(N)ncnc32)cc(Cl)c(C#N)c1C1CN(S(=O)(=O)CC)C1` (single isomer, unassigned) [Example 249, 4-[1-(4-Amino-3-methyl-1H-pyrazolo[3,4-d]pyrimidin-1-yl)ethyl]-6-chloro-3-ethoxy-2-[1-(ethylsulfonyl)azetidin-3-yl]benzonitrile], the IC50 was less than 0.01 µM.

Regarding `CCNC(=O)c1c(C)c(Cl)cc(C(C)n2nc(-c3ccc4nc(N)sc4c3)c3c(N)ncnc32)c1OCC` (racemic) [Example 90, 3-{1-[4-Amino-3-(2-amino-1,3-benzothiazol-6-yl)-1H-pyrazolo[3,4-d]pyrimidin-1-yl]ethyl}-5-chloro-2-ethoxy-N-ethyl-6-methylbenzamide], the IC50 is less than 0.01 µM.

With `COc1c(C(C)n2ccc(=O)c3c(N)ncnc32)cc(Cl)c(C)c1C1CN(C(C)C)C1` (racemic) [Example 34, 4-Amino-8-{1-[5-chloro-3-(1-isopropylazetidin-3-yl)-2-methoxy-4-methylphenyl]ethyl}pyrido[2,3-d]pyrimidin-5(8H)-one], the 50% inhibitory concentration (IC50) was less than 0.01 µM.

Take `COc1c(C(C)n2nc(C(F)F)c3c(N)ncnc32)cc(Cl)c(F)c1C1CN(C(C)C)C1` (stereo not shown) [Example 73, 1-{1-[5-Chloro-4-fluoro-3-(1-isopropylazetidin-3-yl)-2-methoxyphenyl]ethyl}-3-(difluoromethyl)-1H-pyrazolo[3,4-d]pyrimidin-4-amine]: the IC50 was less than 0.01 µM.

Take `COC(=O)N1CC(c2c(C#N)c(Cl)cc(C(C)n3nc(C)c4c(N)ncnc43)c2OC)C1` (single isomer, unassigned) [Example 289, Methyl 3-{3-[1-(4-amino-3-methyl-1H-pyrazolo[3,4-d]pyrimidin-1-yl)ethyl]-5-chloro-6-cyano-2-methoxyphenyl}azetidine-1-carboxylate]: the IC50 was less than 0.01 µM.

For `COc1c(C(C)n2nc(C)c3c(N)ncnc32)cc(Cl)c(C)c1C1CN(C(C)C#N)C1` (stereo not shown) [Example 106, 2-(3-{3-[1-(4-Amino-3-methyl-1H-pyrazolo[3,4-d]pyrimidin-1-yl)ethyl]-5-chloro-2-methoxy-6-methylphenyl}azetidin-1-yl)propanenitrile], the IC50 was less than 0.01 µM.

For the compound `CCNC(=O)c1c(C)c(Cl)cc(C(C)n2nc(-c3cnc4[nH]ccc4c3)c3c(N)ncnc32)c1OCC` (racemic) [Example 91, 3-{1-[4-Amino-3-(1H-pyrrolo[2,3-b]pyridin-5-yl)-1H-pyrazolo[3,4-d]pyrimidin-1-yl]ethyl}-5-chloro-2-ethoxy-N-ethyl-6-methylbenzamide], the IC50 is less than 0.01 µM.

On to `COc1c(C(C)n2nc(C)c3c(N)ncnc32)cc(Cl)c(C)c1C1CN([C@H](C)C(=O)N(C)C)C1` (stereo partly drawn) [Example 159, (2R)-2-(3-{3-[1-(4-Amino-3-methyl-1H-pyrazolo[3,4-d]pyrimidin-1-yl)ethyl]-5-chloro-2-methoxy-6-methylphenyl}azetidin-1-yl)-N,N-dimethylpropanamide], for which the half-maximal inhibitory concentration (IC50) is less than 0.01 µM.

Turning to `COc1c(C(C)n2nc(C)c3c(N)ncnc32)cc(Cl)c(C)c1C1CN(C[C@@H](O)C(F)(F)F)C1` (single isomer, unassigned) [Example 115], the IC50 is less than 0.01 µM.
